We go through three molecules from patent publication US10139394B2, “Method for controlling cancer metastasis or cancer cell migration by modulating the cellular level of lysyl tRNA synthetase” (Medicinal Bioconvergence Research Center, priority 2008, dated 2018).

Assay [1] deals with membrane translocation of KRS. The assay is described as follows: Laminin-dependent membrane translocation of KRS and 67LR, cell fractionation and Western blotting. The format is cell-based. The settings on record: A549 cells; inhibitor for 3 hr, then laminin for 1 hr; FIG. 9 upper. Here is the method: (§1) In FIG. 7, A549 cells were treated with laminin (10 ug/ml) and the level of 67LR, 37LRP and KRS was determined by Western blotting at the indicated times. Hsp90 and Cadherin were used as markers for cytoplasm and membrane, respectively. In FIG. 8, A549 cells untreated or treated with laminin for 1 h were subjected to immunofluorescence staining with anti-67LR (MLuC5, Santacruz, sc-59732) (red) and -KRS antibodies (green). In FIG. 9, A549 cells were treated with U73122 (U), staurosporin (ST) and LY294002 (LY) that inhibit PLC-gamma, PKC and PI3K, respectively, for 3 hr, then with laminin for 1 hr and checked how these kinase inhibitors would affect the membrane and cytoplasmic level of 67LR and KRS. In FIG. 10, A549 cells were transfected with Myc-KRS and incubated for 24 h. The cells were treated with the indicated chemicals and then with laminin as above. Myc-KRS was immunoprecipitated, and immunoblotted with anti-p-Thr, -Ser, and -Tyr antibodies. In FIG. 11, A549 cells were transfected with Myc-KRS and cultivated for 24 hr. The transfectants were pre-treated with LY294002 for 3 hr and then treated with laminin for 1 h. Myc-KRS was immunoprecipitated and co-precipitation of 67LR was determined by Western blotting. IgG was used as a control for immunoprecipitation. In FIG. 12, A549 cells were cultivated in the absence and presence of laminin and LY294002 as indicated. EPRS (glutamyl-prolyl-tRNA synthetase) was immunoprecipitated with its specific antibody (AbCam), and co-immunoprecipitation of KRS was determined by Western blotting (upper). The immune-depleted supernatant (ID) were subjected to Western blottingting with anti-KRS and -EPRS antibodies.
The cells were lysed with 20 mM Tris-HCl (pH 7.4) buffer containing 150 mM NaCl, 0.5% TritonX-100, 0.1% SDS, and protease inhibitor. The protein extracts were incubated with normal IgG and protein G agarose for 2 hr and then centrifuged to remove nonspecific IgG binding proteins. […]

A further assay deals with phosphorylation of KRS. Briefly: Laminin-induced phosphorylation of Myc-KRS, immunoprecipitation and immunoblot with anti-p-Thr, -Ser, -Tyr antibodies. The format is cell-based, human. The settings on record: Myc-KRS transfected A549 cells; FIG. 10. Here is the method:
as §1, with “IgG was used as a control for immunoprecipitation. In FIG. 12, A549 cells were cultivated in the absence and presence of laminin and LY294002 as indicated.” left out, “The immune-depleted supernatant (ID) were subjected to Western blottingting with anti-KRS and -EPRS antibodies.” left out

In a further assay the test system is A549 cells. The assay is described as follows: Cell migration assay in Transwell chamber. Type of assay: cell-based. The following applies: purified KRS at different concentration in lower chamber, 6 hr, FIG. 25. Here is the method:
In FIG. 18, A549 cells were transfected with the indicated plasmids, incubated in the absence and presence of laminin and their effect on cell migration was determined by measuring the migrated cells in transwell chamber as described. The numbers of the cells passed through the membrane were counted and shown in each panel. The experiments were performed three times. In FIG. 19, the cells treated as above were used to determine MMP-2 activity and level by zymography and Western blotting, respectively. In FIG. 20, Breast carcinoma 4T-1 cells were transfected with the indicated siRNA and subcutaneously injected to the back of Balb/C mice. After 21 days, mouse lungs were isolated and tumor nodules over 1 mm in diameter were counted. In FIG. 21, two different 4T-1 cells stably expressing exogenously introduced KRS (KRS-1 and -2) were also inoculated as above and the tumor nodules were counted 30 days after injection. […]
FIGS. 24 to 27 show effect of intracellular and extracellular KRS on cell migration, protein synthesis and cell cycle. In FIG. 24, Migration of A549 cells incubated in the absence of laminin was determined was determined by measuring the migrated cells in Transwell chamber. […] After 6 hr of incubation, the migrant were counted. […] In FIG. 27, A549 cells transfected as indicated were fixed and stained with propidium iodide, and their cell cycle was determined by flow cytometry. […]

As for `COc1ccc2c(c1)CC[C@@H]1[C@@H]2CC[C@]2(C)[C@@H](NCCCCCCN3C(=O)C=CC3=O)CC[C@@H]12` [U73122], in assay [1], the “Laminin-dependent increase of KRS and 67LR in the membrane fraction” value is on record as “still showed laminin-dependent induction of 67LRS”.
As to `CN[C@@H]1C[C@H]2O[C@@](C)([C@@H]1OC)n1c3ccccc3c3c4c(c5c6ccccc6n2c5c31)C(=O)NC4` [staurosporin, reference compound], the “laminin-induced phosphorylated KRS at threonine and serine in presence of inhibitor” value with phosphorylation of KRS is listed as “did not give any effect”. In assay [1], the “Laminin-dependent increase of KRS and 67LR in the membrane fraction” value was “still showed laminin-dependent induction of 67LRS”.
For “purified KRS: purified human lysyl-tRNA synthetase protein added extracellularly”, in the assay on A549 cells, the “cell migration (chemotactic activity of extracellular KRS)” value is recorded as “little affected”.
